Results as given in publication PMC11413853, “Discovery of VU6007496: Challenges in the Development of an M1 Positive Allosteric Modulator Backup Candidate” (ACS Chemical Neuroscience, 2024).
Like-named read-outs stand apart in the source and are kept apart here.

Columns and labels:
[1] = Rat IV plasma:brain level cassette; format: in vivo; conditions: male, 0.25 mg/kg; for concentration at 15 min: Sprague Dawley; for Kp uu at 0.25 h / Kp at 0.25 h: Sprague-Dawley, brain and plasma, 15 min; for Kp at 0.25 h: brain:plasma
Protocol: PAMs 11 and 12 were next evaluated in our rat IV plasma: brain level cassette paradigm (0.25 mg/kg compound, 1 mg/kg total dose, 10.1% EtOH:40.4% PEG400:49.5% DMSO) sampled at a set 15 min time point to assess CNS penetration. […] As mice are the most sensitive species to cholinergic mechanisms,[11],[13],[23],[24] we placed a high-throughput phenotypic seizure liability assay into the work-flow in which potent ago-PAMs, such as 2–5,[8]−[15] display robust Racine scale 4/5 behavioral convulsions that develop within minutes of dosing and last for the 3 h duration of the study. […] In parallel, we performed electrophysiology studies in mouse native tissue layer V medial prefrontal cortex (mPFC). […] Thus, both compounds cleared the major hurdles of CNS penetration and the liability of M1 overstimulation. […]
LC/MS/MS Bioanalysis of Samples from Plasma Protein Binding and Intrinsic Clearance […]
Samples were analyzed on a Thermo Electron TSQ Quantum Ultra triple quad mass spectrometer (San Jose, CA) via electrospray ionization (ESI) with two Themo Electron Accella pumps (San Jose, CA), and a Leap Technologies CTC PAL autosampler (Carrboro, NC). Analytes were separated by gradient elution on a dual column system with two Thermo Hypersil Gold (2.1 x 30 mm, 1.9 µm) columns (San Jose, CA) thermostated at 40 °C. HPLC mobile phase A was 0.1% formic acid in water and mobile phase B was 0.1% formic acid in acetonitrile. The gradient started […]
for 0.2 min; returned to 10% B in 0.1 min. The total run time was 1.3 min and the HPLC flow rate was 0.8 mL/min. While pump 1 ran the gradient method, pump 2 equilibrated the alternate column isocratically at 10% B. Compound optimization, data collection, and processing was performed using Thermo Electron's QuickQuan software (v2.3) and Xcalibur (v2.0.7 SP1).
In vivo DMPK experimental:
Determination of brain to plasma ratio:
All animal study procedures were approved by the Institutional Animal Care and Use Committee and were conducted in accordance with the National Institutes of Health regulations of animal care covered in Principles of Laboratory Animal Care (National Institutes of Health). All rats were fasted overnight prior to testing.
For determination of the brain over plasma ratio (Kp), compounds were formulated in 8% ethanol, 32% PEG400 and 60% DMSO (v/v/v) and administered as a single 0.2 mg/kg IV dose (1 mL/kg) to male, Sprague Dawley rats (n = 1) via injection into a surgically-implanted jugular vein catheter. At 15 min post dosing, blood sample was collected into chilled, K2EDTA anticoagulant-fortified tube and immediately placed on wet ice. The blood sample was then centrifuged (1700 rcf, 5 minutes, 4 °C) to obtain plasma sample. At the same post-administration time point, whole brain sample was obtained by rapid dissection, rinsed with PBS, and immediately frozen in individual tissue collection box (dry ice). All brain and plasma samples were stored at -80 °C until […]
Sample Analysis: Concentrations in plasma and brain homogenates were quantified by liquid chromatography tandem mass spectrometry (LC-MS/MS). Whole brains were homogenized in 3 mL of 70:30 IPA:water in a mini bead beater for 3 min, and centrifuged at 3,500 g for 5 min. 5 uL of the supernatant was diluted in 15 uL of blank plasma for quantification of the analytes. Plasma samples were centrifuged at 3,500 g for 5 min. A standard curve was generated by diluting the analytes DMSO stocks with blank plasma to obtain a final concentration of 10,000 ng/ml followed by a serial dilution down to 0.5 ng/ml. Quality controls were generated by a serial dilution of the 5,000 ng/ml standard curve solution in blank plasma to obtain 3 concentrations of 500, 50, and 5 ng/ml. 20 uL of brain diluted in plasma, plasma, blank plasma, standard curve and QC samples were loaded in a V-bottom 96-well plate. 120 uL of acetonitrile containing 0.05 uM carbamazepine (internal standard) was added to each well and the plate was centrifuged at 3,500 g for 5 min. 60 […]

[2] = Predicted hepatic clearance, dog; format: in vitro ADME
Protocol: The diluted fraction unbound (fu2) in brain was calculated in the same manner by using brain homogenate rather than plasma. Undiluted fraction unbound for the brain was calculated using […]
Equation 5 Determination of fraction unbound in brain. Fu2 represents the diluted fraction […]
Intrinsic clearance: Human or rat hepatic microsomes (0.5 mg/mL) and 1 µM test compound were incubated in 100 mM potassium phosphate pH 7.4 buffer with 3 mM MgCl2 at 37 °C with constant shaking. After a 5 min preincubation, the reaction was initiated by the addition of NADPH (1 mM). At selected time intervals (0, 3, 7, 15, 25, and 45 min), aliquots were taken and subsequently placed into a 96-well plate containing cold acetonitrile with internal standard (50 ng/mL carbamazepine). Plates were then centrifuged at 3000 rcf (4 °C) for 10 min, and the supernatant was transferred to a separate 96-well plate and diluted 1:1 with water for LC/MS/MS analysis. The in vitro half-life ( 1/2, min, Eq. 1), intrinsic clearance (CLint, mL/min/kg, Eq. 2), and subsequent predicted hepatic clearance (CLhep, mL/min/kg, Eq. 3) was determined employing the […]
Samples were analyzed on a Thermo Electron TSQ Quantum Ultra triple quad mass spectrometer (San Jose, CA) via electrospray ionization (ESI) with two Themo Electron Accella pumps (San Jose, CA), and a Leap Technologies CTC PAL autosampler (Carrboro, NC). […]

[3] = brain, read-out: brain concentration
[4] = plasma, read-out: plasma concentration

## Cn1ccc(-c2ccc(Cc3cc(C(=O)NC4CCOCC4)nc4ccsc34)cc2)n1 [compound 12]
[1]; [3]
  concentration at 15 min: 120 ng/g
[1]; [4]
  concentration at 15 min: 105 ng/mL
[1]
  Kp uu at 0.25 h: 0.7
  Kp at 0.25 h: 1.1
[2]
  Predicted CLhep, dog: 16 mL/min/kg

## Cn1ccc(-c2ccc(Cc3cc(C(=O)NC4CCOCC4)nc4ccn(C)c34)cc2)n1 [compound 11]
[1]; [3]
  concentration at 15 min: 39 ng/g
[1]; [4]
  concentration at 15 min: 92.2 ng/mL
[1]
  Kp uu at 0.25 h: 0.36
  Kp at 0.25 h: 0.42
[2]
  Predicted CLhep, dog: 14 mL/min/kg
